Assay results published in patent US20170173114A1, “METHODS AND COMPOSITIONS FOR INDUCTION OF UCP1 EXPRESSION” (Joslin Diabetes Center, Inc., priority 2014, published 2017).

How the values were obtained:
UCP1 = UCP1 mRNA expression (Q-RT-PCR) in WT-1 brown preadipocytes; type: cell-based, murine; conditions: WT-1, 24 hours; vs vehicle
Method: Total RNA was isolated with QIAzol lysis reagent (Qiagen, Valencia, Calif.) and purified by RNeasy Mini columns (Qiagen) following the manufacture's instructions. cDNA was prepared from total RNA using the Advantage RT-PCR kit (BD Biosciences, Palo Alto, Calif.) according to manufacturer's instructions. Diluted cDNA was used in a PCR reaction with SYBR Green Master Mix (Applied Biosystems, Foster City, Calif.) and primers specifically designed for detection of the gene of interest. PCR reactions were run in duplicate for each sample and quantitated in the ABI Sequence Detection System (Applied Biosystems). Data were expressed as arbitrary units after normalization to levels of expression of internal controls for each sample. Sequences of primers for specific genes are each obtained from the published literature or designed using publically available gene sequence databases. Unless otherwise indicated, gene expression data described in the examples below was obtained using QPCR.
The effect of FGF6 on differentiation of WT-1 murine brown preadipocytes was also examined. WT-1 cells can be induced to undergo brown adipocyte differentiation, characterized by lipid accumulation and expression of adipogenic and brown fat markers, as described above (Klein et al. (1999) J Biol Chem 274:34795; Tseng et al. (2005) Nat Cell Biol 7:601). WT-1 cells were treated with FGF6 in growth media (DMEM+10% FBS), a vehicle control (“control” or “C” referred to in FIGS. 3A-D), or induction media (“induction” or “I” referred to in FIGS. 3A-D) as described above for seven days. Following the treatment, cells were examined for the color of the culture media in combination with oil Red O staining, expression of adipogenic markers, expression of brown fat markers, immunofluorescent staining of cells with UCP1 and DPAI, and Western blot analysis to determine the presence of UCP1 and β-tubulin. The results are described in FIGS. 3A to 3D.
UCP1 mRNA expression in brown adipocyte cells was determined at FGF6 concentrations ranging from 0 to 300 ng/ml in the absence of induction cocktail.
In order to determine the length of time necessary to induce UCP1 expression upon exposure to of cells to FGF6, an experiment was performed whereby FGF6 was administered to brown preadipocytes at a concentration of 200 ng/ml and UCP1 expression was determined. FGF21 and a control were also used in the time course experiment. FGF21, a member of the endocrine FGF ligands that has been implicated in the browning of white fat (Fisher F. M. et al., Genes Dev. 26:271-281, 2012). […] FGF6 could acutely induce a significant increase of UCP1 expression as early as 4 hours after a 200 ng/ml dose, as described in FIG. 4B. At 24 hours, the fold-induction of UCP1 mRNA by FGF6 reached 700-fold higher than the untreated cells, as described in FIG. 4B.
To assess FGF6's role in the regulation of mitochondrial activity, FGF6 was stably expressed in WT-1 brown preadipocytes and 3T3-F442A white preadipocytes. Stable cells were generated by viral infection followed by drug selection.
FGF2, FGF6 and FGF9 were used at a dosage of 50 ng/mL, 100 ng/mL, 200 ng/mL or 300 ng/mL. FGF21 was used at the dosage of 50 ng/ml and 500 ng/mL. The concentration of BMP7 was 3.3 nM. RNA was isolated and UCP1 and PPARγ expression levels were evaluated by quantitative reverse transcription polymerase chain reaction (Q-RT-PCR) analysis after 24 hours (i.e., 1 day) (FIG. 14A), 2 days (FIG. 14B), 5 days (FIG. 14C) and 7 days (FIG. 14D) of treatment. All experiments were performed triplicate and the data are presented as mean+/−SEM.
FGF2, FGF6 and FGF9 were used at a dosage of 200 ng/mL. FGF21 was used at a dosage of 500 ng/mL. The concentration of BMP7 was 3.3 nM. mRNA was isolated and UCP1 and PPARγ expression levels were evaluated by quantitative reverse transcription polymerase chain reaction (Q-RT-PCR) analysis after 24 hours (i.e., 1 day), 2 days, 5 days and 7 days of treatment (FIG. 15). […]

LDHA, PDK1, PKM2 = assay: LDHA, PDK1 and PKM2 mRNA expression in WT-1 cells; type: cell-based, murine; conditions: WT-1, 24 hours; vs vehicle
Method: To test the role of specific prostaglandins (PGs) in activating UCP1 expression, WT-1 brown adipocytes were pretreated with PGE2, PGI2 and FGF6 for 24 hours. mRNA expression levels of UCP1, PTGS2, LDHA, PDK1 and PKM2 were then measured.

CCCCC[C@H](O)/C=C/[C@H]1[C@H](O)CC(=O)[C@@H]1C/C=C\CCCC(=O)O [PGE2, reference compound]
UCP1 mRNA expression (UCP1): significantly induced
LDHA mRNA expression (LDHA, PDK1, PKM2): increase
PDK1 mRNA expression (LDHA, PDK1, PKM2): increase
PKM2 mRNA expression (LDHA, PDK1, PKM2): increase

CCCCC[C@H](O)/C=C/[C@@H]1[C@H]2C/C(=C/CCCC(=O)O)O[C@H]2C[C@H]1O [PGI2, reference compound]
UCP1 mRNA expression (UCP1): significantly induced
LDHA mRNA expression (LDHA, PDK1, PKM2): increase
PDK1 mRNA expression (LDHA, PDK1, PKM2): increase
PKM2 mRNA expression (LDHA, PDK1, PKM2): increase
